Data from US5843449A, “Proteins and novel peptides derived from autoantigen for use in immunotherapy of autoimmune diseases” (Akzo Nobel N.V., priority 1996, dated 1998).
Where “and” joins values, the source holds several entries; their conditions need not be identical. Identical values can stand only once.

Key:
Format in all cases: in vivo
Balb/c mice [1] = assay: Arthritogenicity of HC gp-39 in Balb/c mice; settings: for arthritis signs: mild (number of animals) / arthritis signs: none (number of animals) / arthritis signs: severe (number of animals): n = 4; for arthritis signs: mild (number of animals): mild: score per animal does not exceed 2; for arthritis signs: none (number of animals): none: score = 0; for arthritis signs: severe (number of animals): severe: score per animal ≥3
Method: (§1) 10 or 50 μg of purified HC gp-39 in a 100 μl volume PPBS (0.5M NaCl, 0.01M sodium phosphate buffer, pH 7.5) mixed 1:1 in incomplete Freunds adjuvant (IFA) was injected subcutaneously in the chest region in 2×4 female Balb/c mice (Harlan CPB, Zeist, The Netherlands) whereas 4 controls were injected with PBS (1:1 in IFA). Mice were examined daily for clinical signs of arthritis. Severity of arthritis was assessed by scoring each paw from 0-3 (according to the article by Glant et al). In short, score 0=no changes, score 1=erythema and swelling, score 2=swelling and appearance of deformities, score 3=immobility due to loss of flexion and extension.

Balb/c mice [2] = assay: Immunological tolerance by intranasal HC gp-39, DTH assay (footpad swelling)
Method: (§2) Twenty eight μg of protein was administered intranasally (2×10 μl) to 10 female Balb/c mice (anesthetized lightly with Enflurance) using a PT45 micro conduit and a Hamilton syringe. Antigen was administered on day -15, -10 and -5 prior to arthritis induction. Controls (n=10) were submitted to the same procedure but received the vehicle (PBS) only (Table 5).
Immunological tolerance was evaluated by measuring delayed type hypersensitivity (DTH) response following sensitization as described above on day 0, using 10 μg of protein. Sensitization on day 0 was followed by an injection of 10 μg HC gp-39 in […] in the left hind footpad on day 8 (challenge). DTH reactions were measured as the increase in footpad ([swelling left (mm×10^-3)-swelling right (mm×10^-3)]/swelling right (mm×10^-3))×100%. The footpad swelling was measured using an in house designed μmeter at 0, 24 and 48 hr after challenge.

Balb/c mice [3] = assay: Tolerance to arthritis induction or progression after intranasal HC gp-39; settings: for arthritis signs: mild (number of animals): mild: score per animal does not exceed 2; for arthritis signs: severe (number of animals): severe: score per animal ≥4; for arthritis onset (day): first signs appear - highest number of animals affected: monitored to day 31
Method: as §1, §2
Tolerance to arthritis induction in these same mice was then further monitored until day 31 following sensitization and mice were examined daily for clinical signs. Severity of arthritis was assessed as mentioned above.

[4] = controls (n = 10): PBS intranasal, 10 μg HC gp-39 s.c. day 0, 10 μg footpad challenge day 8
[5] = tolerized (n = 9): 28 μg HC gp-39 intranasal day -15, -10, -5, 10 μg s.c. day 0, 10 μg footpad day 8
[6] = controls (n = 10), non-tolerized, 10 μg HC gp-39 s.c.
[7] = tolerized (n = 10): 28 μg HC gp-39 intranasal x3, then 10 μg s.c.

## HC gp-39: Human Cartilage glycoprotein 39, purified from culture supernatant of MG63 human osteosarcoma cells; target autoantigen in RA
Balb/c mice [1]; 10 μg s.c. in IFA
  arthritis signs: mild (number of animals): One and 1
  arthritis signs: none (number of animals): 0
  arthritis signs: severe (number of animals): Three out of 4 and 3
Balb/c mice [1]; 50 μg s.c. in IFA
  arthritis signs: mild (number of animals): 0
  arthritis signs: none (number of animals): 0
  arthritis signs: severe (number of animals): all mice and 4
Balb/c mice [1]; 50 μg s.c. in IFA, n = 4 Balb/c mice
  arthritis onset (day) FP (fore paw), per animal: 15 to 20 days
Balb/c mice [1]; 50 μg s.c. in IFA, followed for 62 days
  frequency of symmetrical distribution of afflicted joints: > 50%
Balb/c mice [2]; control (non-tolerized) mice injected with HC gp-39 at day 0
  DTH response (in words): strong, antigen-specific DTH response
Balb/c mice [2]; [4]
  DTH, mean % swelling 0 hr: -1.3%
  DTH, mean % swelling 24 hr: 31.4%
  DTH, mean % swelling 48 hr: 38.6%
  arthritis ankle (animals affected, adjacent to site of challenge): 4 out of 10 and 4/10 and four out of ten
Balb/c mice [2]; [5]
  DTH, mean % swelling 0 hr: -0.05%
  DTH, mean % swelling 24 hr: 3.7%
  DTH, mean % swelling 48 hr: 1.5%
  arthritis ankle (animals affected, adjacent to site of challenge): did not develop an arthritis and 0/9 and fully protected
Balb/c mice [2]; tolerized by intranasal administration of HC gp-39
  DTH responses upon challenge (in words): completely abrogated
Balb/c mice [3]; [6]
  arthritis signs: mild (number of animals): three and 3
  arthritis signs: severe (number of animals): Seven and 7
Balb/c mice [3]; controls (n = 10), non-tolerized, 10 μg HC gp-39 s.c., no signs: score 0
  arthritis signs: none (number of animals): 0
Balb/c mice [3]; controls (n = 10), non-tolerized, sensitized with 10 μg HC gp-39 s.c.
  arthritis onset (day): first signs appear - highest number of animals affected: 13 to 16 days
Balb/c mice [3]; tolerized (n = 10): 28 μg HC gp-39 intranasal day -15, -10, -5, then 10 μg s.c.
  arthritis onset (day): first signs appear - highest number of animals affected: 23 to 24 days
Balb/c mice [3]; [7]
  arthritis signs: mild (number of animals): two and 2
  arthritis signs: severe (number of animals): Three and 3
Balb/c mice [3]; tolerized vs non-tolerized, FIG. 1
  delay of arthritis onset in tolerized animals, hind and fore paws respectively: 7 to 9 days
